Patent publication US10377791B2, “Therapeutically active estratrienthiazole derivatives as inhibitors of 17 B-hydroxysteroid dehydrogenase, type 1” (FORENDO PHARMA LTD, priority 2013, dated 2019)

Key:
[1] = target: T1, recombinant human 17β-HSD2 (Homo sapiens, UniProt P37059); assay: Inhibition of recombinant human 17β-HSD2; assay type: biochemical; conditions: inhibitor at 1 μM; 50 nM estradiol, 1 mM NADH, 30 min at RT; read-out: 17β-HSD2 Inhibition % at 1 μM
T1 construct: made in house; host or cells: Sd9 (Sf9) insect cells, baculovirus (Bac to Bac Expression System)
T1 sequence (P37059 1-387): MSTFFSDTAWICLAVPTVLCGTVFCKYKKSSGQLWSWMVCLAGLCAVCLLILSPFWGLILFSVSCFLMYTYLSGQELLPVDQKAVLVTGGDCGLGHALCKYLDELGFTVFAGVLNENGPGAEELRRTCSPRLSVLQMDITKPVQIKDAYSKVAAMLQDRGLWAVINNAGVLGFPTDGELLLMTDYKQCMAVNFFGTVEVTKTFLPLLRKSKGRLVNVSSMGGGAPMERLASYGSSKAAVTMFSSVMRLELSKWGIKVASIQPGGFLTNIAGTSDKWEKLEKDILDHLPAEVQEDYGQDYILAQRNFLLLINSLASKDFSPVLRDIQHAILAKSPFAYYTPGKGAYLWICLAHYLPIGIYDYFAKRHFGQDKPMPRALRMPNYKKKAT
Protocol: Similarly to 17β-HSD1 the Recombinant baculovirus was generated by the “Bac to Bac Expression System” (Invitrogen). Recombinant bacmid was transfected to Sd9 insect cells using “Cellfectin Reagent” (Invitrogen). 60 h later cells were harvested and supernatant were fractionated by the following protocol: • cells were dissolved into 40 ml of A-buffer (40 mM TRIS, pH8.0, 20% glycerol, 20 μM NAD, 0.4 mM PMSF, 150 mM NaCl, 0.5% dodecyl-β-maltoside+protease inhibitor cocktail) • cells were sonicated • lysate was incubated on ice for 15 min • lysate was centrifuged 5000 rpm 15 min, +4° C. • centrifugation of the supernatant 180 000 g 30 min, +4° C. • pellet was dissolved into 8 ml of A-buffer • not resuspended material was removed by centrifugation 5000 rpm 15 min, +4° C. • the clear supernatant was divided into 100 μl aliquots and were stored frozen until determination of enzymatic activity.
The amount of 17β-HSD2 was analysed by immunoblotting and total protein concentration of each extract batch was determined.
Recombinant protein (4 μg/ml) was incubated in 20 mM KH2PO4 pH 8.5 with 50 nM estradiol (including 800 000 cpm/ml of ^3H-estradiol) and 1 mM NADH for 30 min at RT, in the presence of the potential inhibitor at concentrations 1 μM or 0.1 μM. Inhibitor stock solutions were prepared in DMSO. Final concentration of DMSO was adjusted to 1% in all samples. The enzyme reaction was stopped by addition of 10% trichloroacetic acid (final concentration). Samples were centrifuged in a microtiter plate at 4000 rpm for 10 min. Supernatants were applied to reverse phase HPLC on a Waters Symmetry C18 column, equipped with a Waters Sentry Guard column. Isocratic HPLC runs were performed at RT at a flow rate of 1 ml/min in acetonitrile:water 48:52 as running solvent. Radioactivity was monitored in the eluate by a Packard Flow Scintillation Analyzer. Total radioactivity for estrone and estradiol were determined in each sample and percent conversion of estradiol to estrone was calculated according to the following formula:
(§1) [formula] Percent inhibition was calculated flowingly: % inhibition=100−% conversion

[2] = target: T2, recombinant human 17β-HSD1 (Homo sapiens, UniProt P14061); assay: Inhibition of recombinant human 17β-HSD1; assay type: biochemical; conditions: inhibitor at 1 μM; 30 nM estrone, 1 mM NADPH, 30 min at RT; read-out: 17β-HDS1 Inhibition % at 1 μM
T2 construct: made in house; host or cells: Sd9 (Sf9) insect cells, baculovirus (Bac to Bac Expression System)
T2 sequence (P14061 1-328): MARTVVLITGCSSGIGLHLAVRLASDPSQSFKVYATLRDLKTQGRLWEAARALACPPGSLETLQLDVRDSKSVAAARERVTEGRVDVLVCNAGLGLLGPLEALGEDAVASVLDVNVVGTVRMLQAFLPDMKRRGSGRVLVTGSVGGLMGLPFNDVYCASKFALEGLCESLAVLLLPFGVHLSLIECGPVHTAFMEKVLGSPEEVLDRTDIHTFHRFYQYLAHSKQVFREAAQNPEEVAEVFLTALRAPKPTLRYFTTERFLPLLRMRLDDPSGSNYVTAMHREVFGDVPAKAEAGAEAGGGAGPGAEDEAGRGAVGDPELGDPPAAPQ
Protocol: Recombinant baculovirus was generated by the “Bac to Bac Expression System” (Invitrogen). Recombinant bacmid was transfected to Sd9 insect cells using “Cellfectin Reagent” (Invitrogen). 60 h later cells were harvested; the microsomal fraction was isolated as described by Puranen, T. J., Poutanen, M. H., Peltoketo, H. E., Vihko, P. T. and Vihko, R. K. (1994) Site-directed mutagenesis of the putative active site of human 17 β-hydroxysteroid dehydrogenase type 1. Biochem. J. 304: 289-293. Aliquots were stored frozen until determination of enzymatic activity.
Recombinant protein (1 μg/ml) was incubated in 20 mM KH2PO4 pH 7.4 with 30 nM estrone (including 800 000 cpm/ml of ^3H-estrone) and 1 mM NADPH for 30 min at RT, in the presence of the potential inhibitor at concentrations 1 μM or 0.1 μM. Inhibitor stock solutions were prepared in DMSO. Final concentration of DMSO was adjusted to 1% in all samples. The enzyme reaction was stopped by addition of 10% trichloroacetic acid (final concentration). Samples were centrifuged in a microtiter plate at 4000 rpm for 10 min. Supernatants were applied to reverse phase HPLC on a Waters Symmetry C18 column, equipped with a Waters Sentry Guard column. Isocratic HPLC runs were performed at RT at a flow rate of 1 ml/min in acetonitrile:water 48:52 as running solvent. Radioactivity was monitored in the eluate by a Packard Flow Scintillation Analyzer. Total radioactivity for estrone and estradiol were determined in each sample and percent conversion of estrone to estradiol was calculated according to the following formula:
as §1

SMILES: Cc1cnc(NC(=O)CC[C@@H]2CC(=O)[C@@]3(C)CCC4c5ccc6ocnc6c5CCC4C23)s1 (stereo partly drawn) [Compound 46, 3-((7aS,10R)-7a-methyl-8-oxo-6,7,7a,8,9,10,10a,10b,11,12-decahydro-5bH-cyclopenta[7,8]phenanthro[1,2-d]oxazol-10-yl)-N-(5-methylthiazol-2-yl)propanamide]
- inhibition at 1 µM [1]: 3%
- inhibition at 1 µM [2]: 87%

SMILES: Cc1nc2cc3c(cc2o1)CCC1C3CC[C@]2(C)C(=O)C[C@@H](CCC(=O)Nc3ncc(C)s3)C12 (stereo partly drawn) [Compound 48, 3-((3R,12aS)-8,12a-dimethyl-1-oxo-2,3,3a,3b,4,5,10b,11,12,12a-decahydro-1H-cyclopenta[7,8]phenanthro[3,2-d]oxazol-3-yl)-N-(5-methylthiazol-2-yl)propanamide]
- inhibition at 1 µM [1]: 2%
- inhibition at 1 µM [2]: 91%

SMILES: Cc1nc2c3c(ccc2o1)C1CC[C@]2(C)C(=O)C[C@@H](CCC(=O)Nc4ncc(C)s4)C2C1CC3 (stereo partly drawn) [Compound 49, 3-((7aS,10R)-2,7a-dimethyl-8-oxo-6,7,7a,8,9,10,10a,10b,11,12-decahydro-5bH-cyclopenta[7,8]phenanthro[1,2-d]oxazol-10-yl)-N-(5-methylthiazol-2-yl)propanamide]
- inhibition at 1 µM [1]: 1%
- inhibition at 1 µM [2]: 84%

SMILES: Cc1cnc(NC(=O)CC[C@@H]2CC(=O)[C@@]3(C)CCC4c5cc6[nH]c(=O)oc6cc5CCC4C23)s1 (stereo partly drawn) [Compound 50, 3-((3R,12aS)-12a-methyl-1,8-dioxo-2,3,3a,3b,4,5,8,9,10b,11,12,12a-dodecahydro-1H-cyclopenta[7,8]phenanthro[3,2-d]oxazol-3-yl)-N-(5-methylthiazol-2-yl)propanamide]
- inhibition at 1 µM [1]: 40%
- inhibition at 1 µM [2]: 91%

SMILES: Cc1cnc(NC(=O)CC[C@@H]2CC(=O)[C@@]3(C)CCC4c5ccc6oc(=O)[nH]c6c5CCC4C23)s1 (stereo partly drawn) [Compound 51, 3-((7aS,10R)-7a-methyl-2,8-dioxo-2,5b,6,7,7a,8,9,10,10a,10b,11,12-dodecahydro-1H-cyclopenta[7,8]phenanthro[1,2-d]oxazol-10-yl)-N-(5-methylthiazol-2-yl)propanamide]
- inhibition at 1 µM [1]: 1%
- inhibition at 1 µM [2]: 78%

SMILES: COc1cc2c(cc1I)C1CC[C@]3(C)C(=O)C[C@@H](CCC(=O)Nc4ncc(C)s4)C3C1CC2 (stereo partly drawn) [Compound 52, 3-((13S,15R)-2-iodo-3-methoxy-13-methyl-17-oxo-7,8,9,11,12,13,14,15,16,17-decahydro-6H-cyclopenta[a]phenanthren-15-yl)-N-(5-methylthiazol-2-yl)propanamide]
- inhibition at 1 µM [1]: 1%
- inhibition at 1 µM [2]: 93%

SMILES: Cc1cnc(NC(=O)CC[C@@H]2CC(=O)[C@@]3(C)CCC4c5cc(I)c(O)c(I)c5CCC4C23)s1 (stereo partly drawn) [Compound 53, 3-((13S,15R)-3-hydroxy-2,4-diiodo-13-methyl-17-oxo-7,8,9,11,12,13,14,15,16,17-decahydro-6H-cyclopenta[a]phenanthren-15-yl)-N-(5-methylthiazol-2-yl)propanamide]
- inhibition at 1 µM [1]: 5%
- inhibition at 1 µM [2]: 94%

SMILES: Cc1cnc(NC(=O)CC[C@@H]2CC(=O)[C@@]3(C)CCC4c5ccc(O)c(I)c5CCC4C23)s1 (stereo partly drawn) [Compound 54, 3-((13S,15R)-3-hydroxy-4-iodo-13-methyl-17-oxo-7,8,9,11,12,13,14,15,16,17-decahydro-6H-cyclopenta[a]phenanthren-15-yl)-N-(5-methylthiazol-2-yl)propanamide]
- inhibition at 1 µM [1]: 4%
- inhibition at 1 µM [2]: 86%

SMILES: Cc1cnc(NC(=O)CC[C@@H]2CC(=O)[C@@]3(C)CCC4c5cc(I)c(O)cc5CCC4C23)s1 (stereo partly drawn) [Compound 55, 3-((13S,15R)-3-hydroxy-2-iodo-13-methyl-17-oxo-7,8,9,11,12,13,14,15,16,17-decahydro-6H-cyclopenta[a]phenanthren-15-yl)-N-(5-methylthiazol-2-yl)propanamide]
- inhibition at 1 µM [1]: 7%
- inhibition at 1 µM [2]: 98%

SMILES: Cc1cnc(NC(=O)CC[C@@H]2CC(=O)[C@@]3(C)CCC4c5cc(Br)c(O)cc5CCC4C23)s1 (stereo partly drawn) [Compound 56, 3-((13S,15R)-2-bromo-3-hydroxy-13-methyl-17-oxo-7,8,9,11,12,13,14,15,16,17-decahydro-6H-cyclopenta[a]phenanthren-15-yl)-N-(5-methylthiazol-2-yl)propanamide]
- inhibition at 1 µM [1]: 18%
- inhibition at 1 µM [2]: 93%

SMILES: Cc1cnc(NC(=O)CC[C@@H]2CC(=O)[C@@]3(C)CCC4c5ccc(O)c(Br)c5CCC4C23)s1 (stereo partly drawn) [Compound 57, 3-((13S,15R)-4-bromo-3-hydroxy-13-methyl-17-oxo-7,8,9,11,12,13,14,15,16,17-decahydro-6H-cyclopenta[a]phenanthren-15-yl)-N-(5-methylthiazol-2-yl)propanamide]
- inhibition at 1 µM [1]: 16%
- inhibition at 1 µM [2]: 92%

SMILES: Cc1cnc(NC(=O)CC[C@@H]2C(Br)C(=O)[C@@]3(C)CCC4c5cc(Br)c(O)c(Br)c5CCC4C23)s1 (stereo partly drawn) [Compound 59, N-(5-methylthiazol-2-yl)-3-((13S,15S)-2,4,16-tribromo-3-hydroxy-13-methyl-17-oxo-7,8,9,11,12,13,14,15,16,17-decahydro-6H-cyclopenta[a]phenanthren-15-yl)propanamide]
- inhibition at 1 µM [1]: 2%
- inhibition at 1 µM [2]: 79%

SMILES: Cc1cnc(NC(=O)CC[C@@H]2CC(=O)[C@@]3(C)CCC4c5ccc(O)c(Cl)c5CCC4C23)s1 (stereo partly drawn) [Compound 63, 3-((13S,15R)-4-chloro-3-hydroxy-13-methyl-17-oxo-7,8,9,11,12,13,14,15,16,17-decahydro-6H-cyclopenta[a]phenanthren-15-yl)-N-(5-methylthiazol-2-yl)propanamide]
- inhibition at 1 µM [1]: 21%
- inhibition at 1 µM [2]: 99%

SMILES: Cc1cnc(NC(=O)CC[C@@H]2CC(=O)[C@@]3(C)CCC4c5cc(Cl)c(O)cc5CCC4C23)s1 (stereo partly drawn) [Compound 64, 3-((13S,15R)-2-chloro-3-hydroxy-13-methyl-17-oxo-7,8,9,11,12,13,14,15,16,17-decahydro-6H-cyclopenta[a]phenanthren-15-yl)-N-(5-methylthiazol-2-yl)propanamide]
- inhibition at 1 µM [1]: 5%
- inhibition at 1 µM [2]: 98%

SMILES: Cc1cnc(NC(=O)CC[C@@H]2CC(=O)[C@@]3(C)CCC4c5ccc(O)c(F)c5CCC4C23)s1 (stereo partly drawn) [Compound 66, 3-((13S,15R)-4-fluoro-3-hydroxy-13-methyl-17-oxo-7,8,9,11,12,13,14,15,16,17-decahydro-6H-cyclopenta[a]phenanthren-15-yl)-N-(5-methylthiazol-2-yl)propanamide]
- inhibition at 1 µM [1]: 8%
- inhibition at 1 µM [2]: 98%
